Experimental data published in patent publication US9403840B2, “(Poly) aminoacetamide derivatives of epipodophyllotoxin their process of preparation and their applications in therapeutics as anticancer agents” (PIERRE FABRE MEDICAMENT, priority 2004, dated 2016).
In brackets after ≈: the same amount, converted by molar mass. Several values for one entry are separate records, joined by “and”; a condition that tells them apart may be missing. Identical values can stand only once. Counter-ions that a name gives are not always drawn.

How the values were obtained:
[1] = test system: MX-1 human mammary carcinoma; assay: MX-1 experimental tumour model (tumour volume); assay type: in vivo, mouse
Excerpt: The model used is a human mammary carcinoma (Developmental Therapeutics Program, Division of Cancer Treatment, National Cancer Institute, In vivo Cancer Models 1976-1982. NIH Publication No. 84 2635, Washington D.C.: United States Government Printing Office, 1984), which is maintained by successive subcutaneous transplantations in Swiss Nude mice (Ico: Swiss-nu/nu, Iffa Credo, L'Arbresle, France), as was described above (Classic in vivo cancer models: Three examples of mouse models used in experimental therapeutics. Current Protocols in Pharmacology Unit 5.24: 5.24.1-5.24.16, 2001).
The experiment is carried out according to a protocol already described above (Cancer Chemother. Pharmacol., 1998, 41, 437-447). […] After randomizing the animals in their treatment and control cages, the compounds to be evaluated are administered intraperitoneally on day 7, 9, 11, 14, 16 and 18 after the grafting of the tumour. The animals are subsequently monitored every day, weighed twice weekly and any clinical reaction is recorded. The size of the tumour is measured three times weekly during the experiment. The tumour volume is calculated and the activity of the compounds on the size of the tumour is defined by the T/Cvolume ratio (%), corresponding to (Median tumour volume of the treated group/Median tumour volume of the control group)×100.

[2] = test system: DNA in A549 cells; assay: Comets test for detection of breakages of the DNA in cellulo; assay type: cell-based, human; details: 1 hour with 10 μM compound
Method: b) Test for Detection of Breakages of the DNA in Cellulo:
The comets test is used. The breakages of the DNA are detected in the A549 cells after incubating for 1 hour with 10 μM of each of the test compounds. […] For each compound, twenty-five cells are analysed and the mean Tail Moment (TM) is calculated using Komet software (Kinetic Imaging, UK).

[3] = Solubility in water of the hydrochloride; assay type: physicochemical; details: water-soluble hydrochloride
Excerpt: The compounds of the present invention have a solubility in water which makes possible a form of administration by infusion, by injection or by the oral route. They are provided in the form of their water-soluble hydrochloride, the solubility values of which are collated in Table II.

[4] = test system: P388 murine leukaemia; assay: P388 experimental tumour model (survival); assay type: in vivo, mouse; details: CD2F1 mice, P388 i.v. day 0, single intraperitoneal injection day 1; optimum dose (mg/kg) in brackets
Method: (§1) The model used is P388 murine leukaemia (Tumor Models in Cancer Research., Teicher, B. A. ed., Humana Press Inc., Totowa, N.J., pp. 23-40, 2002), which is maintained by successive intraperitoneal transplantations in DBA/2 mice (DBA/2JIco, Charles River), as was described in prior art documents (Classic in vivo cancer models: Three examples of mouse models used in experimental therapeutics. Current Protocols in Pharmacology Unit 5.24: 5.24.1-5.24.16, 2001).
The experiment is carried out according to a protocol already described in prior art documents (Cancer Chemother. Pharmacol., 1998, 41, 437-447). This consists in implanting 10^6 cells of P388 leukaemia per mouse into C2DF1 hybrid mice (CD2F1/CrlBR, Charles River, St Aubin-les-Elbeuf, France) intravenously on day zero. After randomizing the animals in the treatment and control cages, the compounds to be evaluated are administered in a single injection intraperitoneally the day after the tumour graft, on day 1. The animals are subsequently monitored every day, weighed twice weekly and any clinical reaction is recorded. The survival is the parameter for evaluation of the antitumour activity. The increase in survival is defined by the T/Csurvival ratio (%), corresponding to: (Median of survival of the treated group/Median of survival of the control group)×100. A T/Csurvival ratio is calculated for each dose administered and the greatest value obtained represents the maximum increase in survival achieved (maximum activity), which is defined by the optimum T/Csurvival ratio. The results are illustrated in Table II, in which the optimum T/Csurvival values appear. […] Specifically, according to the criteria of the NCI (National Cancer Institute), a T/Csurvival value is regarded as significant if it is at least greater than 120% (Semin. Oncol., 1981, 8, 349-361). The relative loss in body weight of the animals, associated with the optimum activity of the compounds, is much less than the toxicity threshold, according to the criteria of the NCI (Ann. Oncol., 1994, 5, 415-422).

[5] = test system: cells of the A549 human line (non-small-cell lung cancer); assay: Cytotoxicity test: inhibition of growth of A549 cells (ATP-Lite luminescence); assay type: cell-based; details: 48 hours incubation
Method: The test used is the inhibition of growth of cells of the A549 human line (non-small-cell lung cancer):
The A549 tumour cells are seeded in a 96-well plate in RPMI 1640 medium without phenol red (Seromed) to which 5% of foetal calf serum is added (100 μl/well, 125×10^4 cells/ml). After incubating at 37° C. for 24 hours in an incubator comprising 5% CO2, the medium is replaced with that comprising the test compound, after which the plates are incubated for an additional 48 hours. Cell survival is evaluated by measuring the luminescence after release of ATP into the medium using the cell lysis, luciferase and luciferin solutions present in the ATP-Lite-M™ kit as is recommended by the manufacturer (Packard, Rungis, France). Each experimental condition was tested at least three times as six identical copies. The results, expressed as IC50 (M), are collated in Table I and show the cytotoxicity of the compounds.

[6] = test system: B16 melanoma; assay: B16 experimental tumour model (tumour volume); assay type: in vivo, mouse; details: C57BL/6 mice, s.c. B16, intraperitoneal on days 3, 5, 7 and 10; dose (mg/kg) in brackets
Method: as §1, with “the B16 melanoma” for “P388 murine leukaemia”, “subcutaneous” for “intraperitoneal”, “C57BL/6” for “DBA/2”, “(C57BL/6 NCrlBR,” for “(DBA/2JIco,”, “River, St Aubin-les-Elbeuf, France),” for “River),”, “above” for “in prior art documents”
The experiment is carried out according to a protocol already described above. B16 tumour tissue is ground and homogenized in a 0.9% sterile sodium chloride solution using a Dounce homogenizer and then C57BLJ6 mice are inoculated subcutaneously into the flank with 0.5 ml of this 1 g/ml preparation on day zero. After randomizing the animals in the treatment and control cages, the compounds to be evaluated are administered intraperitoneally on days 3, 5, 7 and 10 after the grafting of the tumour. The animals are subsequently monitored every day, weighed twice weekly and any clinical reaction is recorded. The size of the tumour is measured three times weekly during the experiment. The tumour volume is calculated and the activity of the compounds on the size of the tumour is defined by the T/Cvolume ratio (%), corresponding to (Median tumour volume of the treated group/Median tumour volume of the control group)×100. […]

| Structure (SMILES) | TM (mean Tail Moment with respect to the TM of etoposide, taken to be unity) [2] | P388 Model Optimum T/Csurvival (%) [4] | IC50 ([5]; Homo sapiens) | melting point | also measured |
| --- | --- | --- | --- | --- | --- |
| COc1cc(C2c3cc4c(cc3C(NC(=O)CNCCCNCCCCNCCCN)C3COC(=O)C23)OCO4)cc(OC)c1O (stereo not drawn) [Example 27, 2-{3-[4-(3-aminopropylamino)butylamino]propylamino}-N-[9-(4-hydroxy-3,5-dimethoxyphenyl)-8-oxo-5,5a,6,8,8a,9-hexahydrofuro[3′,4′:6,7]naphtho[2,3-d][1,3]dioxol-5-yl]acetamide] | 1.22 | 129 [7.5] % | 200 nM |  | effect on the tumour (in words) ([1]; MX-1, treatment of 2.5 mg/kg): complete eradication of the tumour; solubility [3]: 50 mg/mL (≈ 77.9 mM) |
| COc1cc(C2c3cc4c(cc3C(NC(=O)CNCCCCN)C3COC(=O)C23)OCO4)cc(OC)c1O (stereo not drawn) [Example 25, 2-(4-aminobutylamino)-N-[9-(4-hydroxy-3,5-dimethoxyphenyl)-8-oxo-5,5a,6,8,8a,9-hexahydrofuro[3′,4′:6,7]naphtho[2,3-d][1,3]dioxol-5-yl]acetamide] | 1.09 | 129 [10] % | 80 nM |  | MX-1 Model Optimum T/Cvolume (%) ([1]; Swiss Nude mice, s.c. MX-1, intraperitoneal on day 7, 9, 11, 14, 16 and 18, dose (mg/kg) in brackets): 51% and 51 [10] %; B16 Model Optimum T/Cvolume (%) [6]: 25% and 25 [20] %; solubility [3]: 100 mg/mL (≈ 190 mM) |
| COc1cc(C2c3cc4c(cc3C(NC(=O)CNCCCNCCCCN)C3COC(=O)C23)OCO4)cc(OC)c1O (stereo not drawn) (as salt: hydrochloride) [Example 31, 2-[3-(4-aminobutylamino)propylamino]-N-[9-(4-hydroxy-3,5-dimethoxyphenyl)-8-oxo-5,5a,6,8,8a,9-hexahydrofuro[3′,4′:6,7]naphtho[2,3-d][1,3]dioxol-5-yl]acetamide] |  |  |  | 255 °C |  |
| COc1cc(C2c3cc4c(cc3C(NC(=O)CNCCN)C3COC(=O)C23)OCO4)cc(OC)c1O (stereo not drawn) (as salt: hydrochloride) |  |  |  | 236 °C |  |
| CCC1=C[C@@H]2CN(C1)Cc1c([nH]c3ccccc13)[C@@](C(=O)OC)(c1cc3c(cc1OC)N(C)[C@H]1[C@@](O)(C(=O)OC)[C@H](OC(C)=O)[C@]4(CC)C=CCN5CC[C@]31[C@@H]54)C2 [Vinorelbine, reference compound] | 0 |  | 3.7 nM |  |  |
| COc1cc(C2c3cc4c(cc3C(NC(=O)CN(C)C)C3COC(=O)C23)OCO4)cc(OC)c1O (stereo not drawn) [Example 12, 2-dlmethylamino-N-[9-(4-hydroxy-3,5-dimethoxyphenyl)-8-oxo-5,5a,6,8,8a,9-hexahydrofuro[3′,4′:6,7]naphtho[2,3-d][1,3]dioxol-5-yl]acetamide] | 2.32 | 157 [2.5] % |  |  | Solubility in water [3]: 16 mg/mL (≈ 33 mM); IC50 [5]: 200 nM |
| COc1cc(C2c3cc4c(cc3C(NC(=O)CN)C3COC(=O)C23)OCO4)cc(OC)c1O (stereo not drawn) [Example 22, 2-amino-N-[9-(4-hydroxy-3,5-dimethoxyphenyl)-8-oxo-5,5a,6,8,8a,9-hexahydrofuro[3′,4′:6,7]naphtho[2,3-d][1,3]dioxol-5-yl]acetamide] | 3.89 |  | 1000 nM |  |  |
| COc1cc(C2c3cc4c(cc3C(NC(=O)CNCCCCNCCCN)C3COC(=O)C23)OCO4)cc(OC)c1O (stereo not drawn) (as salt: hydrochloride) |  |  |  | 199 °C |  |
| COc1cc(C2c3cc4c(cc3C(NC(=O)CN3CCCCC3)C3COC(=O)C23)OCO4)cc(OC)c1O (stereo not drawn) (as salt: hydrochloride) |  |  |  | 269 to 270 °C |  |
| COc1cc(C2c3cc4c(cc3C(NC(=O)CNCCCN)C3COC(=O)C23)OCO4)cc(OC)c1O (stereo not drawn) (as salt: hydrochloride) |  |  |  | 219 °C |  |
| COc1cc(C2c3cc4c(cc3C(NC(=O)CNCCN(C)C)C3COC(=O)C23)OCO4)cc(OC)c1O (stereo not drawn) [Example 9, 2-(2-dimethylaminoethylamino)-N-[9-(4-hydroxy-3,5-dimethoxyphenyl)-8-oxo-5,5a,6,8,8a,9-hexahydrofuro[3′,4′:6,7]naphtho[2,3-d][1,3]dioxol-5-yl]acetamide] | 2.81 | 157 [10] % | 6000 nM |  | solubility [3]: 100 mg/mL (≈ 190 mM) |
| COc1cc(C2c3cc4c(cc3C(NC(=O)CNCCCNCCCCNCCCN)C3COC(=O)C23)OCO4)cc(OC)c1OC (stereo not drawn) (as salt: hydrochloride) |  |  |  | 209 °C |  |
| COc1cc(C2c3cc4c(cc3C(NC(=O)CN)C3COC(=O)C23)OCO4)cc(OC)c1O (stereo not drawn) (as salt: hydrochloride) [Example 22, 2-amino-N-[9-(4-hydroxy-3,5-dimethoxyphenyl)-8-oxo-5,5a,6,8,8a,9-hexahydrofuro[3′,4′:6,7]naphtho[2,3-d][1,3]dioxol-5-yl]acetamide] |  |  |  | 236 °C |  |
